Measurements reported in PMC5655360, “Establishment of a novel hepatocyte model that expresses four cytochrome P450 genes stably via mammalian-derived artificial chromosome for pharmacokinetics and toxicity studies” (PLoS ONE, 2017).
Read-outs that look alike come from different tables or passages of the source.

Columns and labels:
[1] = tested on: TC-HepG2 cells
[2] = tested on: HepG2 cells
[3] = target: T1, CYP3A4 (Homo sapiens, UniProt P08684)
Description: (§1) Measurement of the activity of all four CYPs was conducted using the P450-Glo™ assay (Promega, Japan), according to the manufacturer’s instructions. Briefly, cells were seeded in a 96-well plate at a density of 1×10^4 cells/well. Twenty-four hours later, test compounds and the luminescent substrate included in the kit were added into the culture media. Following 1 hour of incubation, the detection reagent was added, and the luminescence generated by the metabolic substrate within the culture media was measured using an Infinite F500 plate reader ([…]).
(§2) Curve fitting was performed using the SigmaPlot 13.0 statistical software (Systat Software, IL, USA). […] Data were presented as means ± S.D. Statistical analyses were carried out using unpaired Student’s t test. The level of statistical significance was set at P< 0.05.
(§3) Twenty compounds that are known to inhibit CYPs were used to calculate IC50 values in TC-HepG2 cells, which were then compared to those in primary human hepatocytes.
(§4) Briefly, CYP inhibitors were added to the culture media at the same time as the metabolic substrate to test direct inhibition (DI) or 1 hour prior to the addition of the metabolic substrate to test time-dependent inhibition (TDI).
Target sequence in this assay (P08684 2-503): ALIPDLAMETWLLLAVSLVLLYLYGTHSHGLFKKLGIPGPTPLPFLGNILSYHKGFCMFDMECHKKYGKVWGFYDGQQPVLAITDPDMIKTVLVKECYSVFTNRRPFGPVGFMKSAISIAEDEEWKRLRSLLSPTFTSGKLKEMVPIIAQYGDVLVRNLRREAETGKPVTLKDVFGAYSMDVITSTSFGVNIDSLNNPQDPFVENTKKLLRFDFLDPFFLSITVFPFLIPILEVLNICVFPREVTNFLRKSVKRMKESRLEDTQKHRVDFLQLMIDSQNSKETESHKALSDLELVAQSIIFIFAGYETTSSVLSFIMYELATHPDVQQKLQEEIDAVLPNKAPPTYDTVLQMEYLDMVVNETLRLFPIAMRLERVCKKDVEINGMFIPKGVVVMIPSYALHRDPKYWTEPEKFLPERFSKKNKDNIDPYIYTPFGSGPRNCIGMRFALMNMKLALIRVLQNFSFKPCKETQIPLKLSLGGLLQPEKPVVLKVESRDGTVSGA

[4] = target: T1, CYP3A4; assay: in vitro
Description: as §1
Fig 6G–6I show the plots to determine the rate of inactivation (kobs) for the three inhibitors as depicted in Fig 6A–6F.
Macrolides (0–100 μM/L) were preincubated at 37°C for 0–30 min, and the reaction was initiated by the addition of CYP3A-specific substrate for 30 min. (G—I) Apparent inactivation rate (kobs) was estimated graphically from the slope of the plot for the natural log enzyme activity remaining after preincubation against preincubation time and was corrected for any loss of activity in the absence of the inhibitor. kinact and Ki,app values were obtained from a double reciprocal plot of kobs against inhibitor concentration. Closed circles represent TC-HepG2 cells, and opened circles represent parental HepG2 cells. Each symbol represents the average of triplicate determinations.

[5] = target: T2, CYP2D6 (Homo sapiens, UniProt P10635); assay: cell-based
Description: as §1, §2, §3, §4

[6] = target: T2, CYP2D6; assay: cell-based; format: in vitro ADME; set-up: endogenous in cells; host or cells: primary human hepatocytes; settings: primary human hepatocytes; mean ± S.D. of triplicate
[7] = target: T3, CYP2C19 (Homo sapiens, UniProt P33261); assay: cell-based; format: in vitro ADME; set-up: endogenous in cells; host or cells: primary human hepatocytes; settings: primary human hepatocytes; mean ± S.D. of triplicate
[8] = target: CYP2C9 (Homo sapiens, UniProt P11712); settings: TC-HepG2 cells, Fig 5
Description: as §1, §2, §3, §4

[9] = target: T3, CYP2C19; assay: cell-based
Description: as §1, §2, §3, §4

T2 sequence (P10635 whole entry): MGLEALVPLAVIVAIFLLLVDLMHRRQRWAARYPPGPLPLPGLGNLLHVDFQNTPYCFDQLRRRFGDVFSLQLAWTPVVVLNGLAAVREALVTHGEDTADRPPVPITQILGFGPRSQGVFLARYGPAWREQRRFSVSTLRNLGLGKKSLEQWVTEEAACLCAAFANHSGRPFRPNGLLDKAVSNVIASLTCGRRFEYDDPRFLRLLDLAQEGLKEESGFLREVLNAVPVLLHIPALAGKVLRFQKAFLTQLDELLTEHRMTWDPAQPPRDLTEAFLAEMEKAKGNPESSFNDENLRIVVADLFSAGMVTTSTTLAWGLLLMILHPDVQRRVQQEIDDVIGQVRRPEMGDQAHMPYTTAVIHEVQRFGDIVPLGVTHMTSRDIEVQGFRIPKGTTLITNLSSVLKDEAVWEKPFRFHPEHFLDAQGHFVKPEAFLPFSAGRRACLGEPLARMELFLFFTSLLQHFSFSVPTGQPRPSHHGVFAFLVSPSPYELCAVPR
T3 sequence (P33261 whole entry): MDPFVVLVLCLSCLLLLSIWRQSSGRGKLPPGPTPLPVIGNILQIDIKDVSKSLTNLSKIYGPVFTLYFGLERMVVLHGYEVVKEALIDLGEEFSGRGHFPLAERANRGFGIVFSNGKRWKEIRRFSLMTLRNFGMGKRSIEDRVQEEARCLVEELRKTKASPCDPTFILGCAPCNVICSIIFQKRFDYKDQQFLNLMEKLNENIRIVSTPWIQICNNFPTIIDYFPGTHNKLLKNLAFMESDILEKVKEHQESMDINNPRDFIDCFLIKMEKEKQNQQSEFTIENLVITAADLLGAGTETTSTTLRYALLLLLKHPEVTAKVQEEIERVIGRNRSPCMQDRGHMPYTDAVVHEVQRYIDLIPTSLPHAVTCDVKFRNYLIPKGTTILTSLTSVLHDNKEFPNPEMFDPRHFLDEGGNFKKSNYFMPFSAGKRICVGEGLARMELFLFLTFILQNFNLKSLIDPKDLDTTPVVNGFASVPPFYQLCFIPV
Chain of CYP2C9 (P11712 whole entry): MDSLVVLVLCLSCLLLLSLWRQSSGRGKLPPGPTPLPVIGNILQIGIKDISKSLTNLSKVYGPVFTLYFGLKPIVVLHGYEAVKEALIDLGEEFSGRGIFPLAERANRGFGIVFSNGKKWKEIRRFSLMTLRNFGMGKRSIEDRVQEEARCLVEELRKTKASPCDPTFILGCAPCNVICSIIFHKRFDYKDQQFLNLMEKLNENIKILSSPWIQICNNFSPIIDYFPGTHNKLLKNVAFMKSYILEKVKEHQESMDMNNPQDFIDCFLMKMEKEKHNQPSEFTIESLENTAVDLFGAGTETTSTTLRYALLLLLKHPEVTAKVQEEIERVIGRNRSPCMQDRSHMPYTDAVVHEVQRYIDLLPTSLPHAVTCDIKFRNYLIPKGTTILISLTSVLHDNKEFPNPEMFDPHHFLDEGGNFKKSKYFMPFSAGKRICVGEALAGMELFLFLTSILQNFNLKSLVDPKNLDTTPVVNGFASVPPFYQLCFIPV

## aflatoxin B1
[1]
  IC50 in TC-HepG2 cells compared with HepG2 cells: lower
[2]
  toxicity in parental HepG2 cells lacking CYPs: neither compound was toxic

## CC[C@H]1OC(=O)[C@H](C)[C@@H](O[C@H]2C[C@@](C)(OC)[C@@H](O)[C@H](C)O2)[C@H](C)[C@@H](O[C@@H]2O[C@H](C)C[C@H](N(C)C)[C@H]2O)[C@](C)(O)C[C@@H](C)/C(=N\OCOCCOC)[C@H](C)[C@@H](O)[C@]1(C)O [Roxithromycin]
[3]
  inhibitory effect with 1 hour preincubation (TDI) compared with simultaneous addition of inhibitor and substrate (DI), CYP3A4: higher
[4]
  suppression of the generation of metabolites of the luminescent CYP3A4 substrate: time- and concentration-dependent manner
[4]; hepatocytes
  KI (inactivation): 13.1 ± 4.7 µM
  kinact: 0.000161 s⁻¹
[4]; human
  KI (inactivation): 4.6 ± 0.6 µM
  kinact: 0.000431 s⁻¹

## CN(C/C=C/C#CC(C)(C)C)Cc1cccc2ccccc12 [Terbinafine]
[5]
  IC50: 2.1 ± 0.2 nM
[6]
  IC50: 9.9 ± 0.2 nM

## C#C[C@]1(O)CC[C@H]2[C@@H]3CCc4cc(O)ccc4[C@H]3CC[C@@]21C [Ethinylestradiol]
[3]; TC-HepG2 cells, Fig 5
  inhibitory effect with 1 hour preincubation (TDI) compared with simultaneous addition of inhibitor and substrate (DI), CYP3A4: higher

## COc1cc2c(c3oc4cccc(O)c4c(=O)c13)[C@@H]1C=CO[C@@H]1O2 [sterigmatocystin]
[1]
  cell survival rate in TC-HepG2 cells compared with parental HepG2 cells: significantly lower
  survival of TC-HepG2 cells: concentration-dependent decrease
[2]
  toxicity in parental HepG2 cells lacking CYPs: neither compound was toxic

## O=C(O)COc1ccc(C(=O)c2cccs2)c(Cl)c1Cl [Tienilic acid]
[7]
  IC50: 550 ± 20 nM
[8]
  inhibitory effect with 1 hour preincubation (TDI) compared with simultaneous addition of inhibitor and substrate (DI), CYP2C9: higher
[9]
  IC50: 5.7 ± 1.7 µM

## CC[C@H]1OC(=O)[C@H](C)[C@@H](O[C@H]2C[C@@](C)(OC)[C@@H](O)[C@H](C)O2)[C@H](C)[C@@H](O[C@@H]2O[C@H](C)C[C@H](N(C)C)[C@H]2O)[C@](C)(OC)C[C@@H](C)C(=O)[C@H](C)[C@@H](O)[C@]1(C)O [Clarithromycin]
[3]; TC-HepG2 cells, Fig 5
  inhibitory effect with 1 hour preincubation (TDI) compared with simultaneous addition of inhibitor and substrate (DI), CYP3A4: higher
[3]; three TC-HepG2 clones (Fig 3C)
  inhibitory effect on CYP3A4 metabolic activity: concentration-dependent inhibitory effect
[4]; 0-100 μM added 10, 20 or 30 min before substrate (Fig 6)
  suppression of the generation of metabolites of the luminescent CYP3A4 substrate: time- and concentration-dependent manner
[4]; hepatocytes
  KI (inactivation): 16 ± 4.3 µM
[4]; human
  KI (inactivation): 3.76 ± 0.42 µM

## Fc1ccc([C@@H]2CCNC[C@H]2COc2ccc3c(c2)OCO3)cc1 [Paroxetine]
[5]
  inhibitory effect with 1 hour preincubation (TDI) compared with simultaneous addition of inhibitor and substrate (DI), CYP2D6: higher
